Experimental data: PubChem BioAssay AID344 (DTP/NCI, 2004)
Values joined by “and” are separate entries in the source; they are usually repeats but may differ in a detail not shown here. Equal entries are not always repeated. Inconclusive results and toxic doses are left out. Rule for the calls: active = survival T/C of 150% or more; inactive = T/C below 125% in these data.

Tested on: mice, LPC-1 plasma cell tumor ip, median survival T/C
Test: NCI In Vivo Anticancer Drug Screen. Data for tumor model Lieberman Plasma Cell No. 1 (LPC-1) (intraperitoneal) in unknown mice
Details: endpoint: median survival time, higher = longer survival
Description: The antitumor activity of compounds was measured in mice bearing transplantable tumors. Survival or tumor size were measured and the results are expressed as the measurement made in the treated group (T) divided by the measurement made in the vehicle treated control group (C). The tumor model used in this assay is Lieberman Plasma Cell No. 1 (LPC-1) (intraperitoneal) in unknown mice

[1] = dose: 2.0 mg/kg/injection, schedule: Q01DX028 (sc), vehicle: saline
[2] = dose: 4.0 mg/kg/injection, schedule: Q01DX028 (sc), vehicle: saline
[3] = dose: 8.0 mg/kg/injection, schedule: Q01DX028 (sc), vehicle: saline
[4] = dose: 16.0 mg/kg/injection, schedule: Q01DX028 (sc), vehicle: saline
[5] = dose: 32.0 mg/kg/injection, schedule: Q01DX028 (sc), vehicle: saline
[6] = dose: 180.0 mg/kg/injection, schedule: Q01DX028 (sc), vehicle: saline
[7] = dose: 108.0 mg/kg/injection, schedule: Q01DX028 (sc), vehicle: saline
[8] = dose: 300.0 mg/kg/injection, schedule: Q01DX028 (sc), vehicle: saline
[9] = dose: 500.0 mg/kg/injection, schedule: Q01DX028 (sc), vehicle: saline

Measured: T/C

O=P1(N(CCCl)CCCl)NCCCO1 (stereo not given)
259 % of control and 88 % of control: dose: 50.0 mg/kg/injection, schedule: Q01DX009 (ip), vehicle: saline
inactive: [1] 86 % of control | dose: 3.12 mg/kg/injection, schedule: Q01DX028 (sc), vehicle: saline 109 % of control | [2] 100 % of control | dose: 6.0 mg/kg/injection, schedule: Q01DX028 (sc), vehicle: saline 114 % of control | dose: 24.0 mg/kg/injection, schedule: Q01DX028 (sc), vehicle: saline 114 % of control | dose: 25.0 mg/kg/injection, schedule: Q01DX015 (sc), vehicle: saline 91 % of control | dose: 48.0 mg/kg/injection, schedule: Q01DX028 (sc), vehicle: saline 100 % of control | dose: 125.0 mg/kg/injection, schedule: Q01DX010 (sc), vehicle: saline 100 % of control | dose: 128.0 mg/kg/injection, schedule: Q01DX028 (sc), vehicle: saline 97 % of control | [6] 97 % of control
active: [3] 161 % of control | dose: 8.4 mg/kg/injection, schedule: Q01DX028 (sc), vehicle: saline 182 % of control and 184 % of control and 213 % of control | dose: 10.0 mg/kg/injection, schedule: Q01DX Z (sc), vehicle: saline 194 % of control | dose: 12.0 mg/kg/injection, schedule: Q01DX028 (sc), vehicle: saline 243 % of control | dose: 12.5 mg/kg/injection, schedule: Q01DX011 (sc), vehicle: saline 190 % of control | dose: 12.5 mg/kg/injection, schedule: Q01DX024 (sc), vehicle: saline 229 % of control | dose: 14.0 mg/kg/injection, schedule: Q01DX Z (sc), vehicle: saline 190 % of control | dose: 15.62 mg/kg/injection, schedule: Q01DX010 (sc), vehicle: saline 150 % of control | [4] 167 % of control and 212 % of control | dose: 20.0 mg/kg/injection, schedule: Q01DX Z (sc), vehicle: saline 155 % of control | dose: 23.0 mg/kg/injection, schedule: Q01DX Z (sc), vehicle: saline 166 % of control | dose: 25.0 mg/kg/injection, schedule: Q01DX011 (sc), vehicle: saline 190 % of control | dose: 25.0 mg/kg/injection, schedule: Q01DX024 (sc), vehicle: saline 244 % of control | dose: 31.25 mg/kg/injection, schedule: Q01DX010 (sc), vehicle: saline 186 % of control | [5] 200 % of control and 208 % of control | dose: 39.0 mg/kg/injection, schedule: Q01DX009 (sc), vehicle: saline 154 % of control | dose: 39.0 mg/kg/injection, schedule: Q01DX Z (sc), vehicle: saline 150 % of control | dose: 50.0 mg/kg/injection, schedule: Q01DX011 (sc), vehicle: saline 190 % of control | dose: 50.0 mg/kg/injection, schedule: Q01DX015 (sc), vehicle: saline 211 % of control | dose: 50.0 mg/kg/injection, schedule: Q01DX024 (sc), vehicle: saline 223 % of control | dose: 64.0 mg/kg/injection, schedule: Q01DX028 (sc), vehicle: saline 168 % of control | dose: 65.0 mg/kg/injection, schedule: Q07DX004 (sc), vehicle: saline 197 % of control

CN[C@H]1CCc2cc(OC)c(OC)c(OC)c2-c2ccc(OC)c(=O)cc21
inactive: dose: 0.62 mg/kg/injection, schedule: Q01DX015 (sc), vehicle: saline 102 % of control | dose: 1.25 mg/kg/injection, schedule: Q01DX015 (sc), vehicle: saline 102 % of control | dose: 1.25 mg/kg/injection, schedule: Q01DX028 (sc), vehicle: saline 107 % of control | dose: 2.5 mg/kg/injection, schedule: Q01DX028 (sc), vehicle: saline 107 % of control

NC(CSC(c1ccccc1)(c1ccccc1)c1ccccc1)C(=O)O (stereo not given)
inactive: dose: 7.5 mg/kg/injection, schedule: Q01DX028 (sc), vehicle: saline 102 % of control | dose: 15.0 mg/kg/injection, schedule: Q01DX028 (sc), vehicle: saline 105 % of control | dose: 60.0 mg/kg/injection, schedule: Q01DX028 (sc), vehicle: saline 105 % of control

NC(=O)c1ccc(N)nc1
inactive: dose: 0.16 mg/kg/injection, schedule: Q01DX028 (sc), vehicle: water 100 % of control | dose: 0.32 mg/kg/injection, schedule: Q01DX028 (sc), vehicle: water 97 % of control | dose: 0.65 mg/kg/injection, schedule: Q01DX028 (sc), vehicle: water 95 % of control | dose: 1.25 mg/kg/injection, schedule: Q01DX028 (sc), vehicle: water 97 % of control | dose: 2.5 mg/kg/injection, schedule: Q01DX028 (sc), vehicle: water 100 % of control | dose: 5.0 mg/kg/injection, schedule: Q01DX028 (sc), vehicle: water 107 % of control

CNNCc1ccc(C(=O)NC(C)C)cc1
active: dose: 65.0 mg/kg/injection, schedule: Q01DX028 (sc), vehicle: saline 166 % of control | [7] 180 % of control
inactive: dose: 26.0 mg/kg/injection, schedule: Q01DX028 (sc), vehicle: saline 96 % of control | dose: 90.0 mg/kg/injection, schedule: Q01DX028 (sc), vehicle: saline 115 % of control | dose: 135.0 mg/kg/injection, schedule: Q01DX028 (sc), vehicle: saline 100 % of control | [8] 114 % of control | [9] 95 % of control

CCC(CCC(C)C1CCC2C3CC=C4CC(OC(=O)CCC(=O)O)CCC4(C)C3CCC12C)C(C)C (stereo not given)
inactive: dose: 100.0 mg/kg/injection, schedule: Q01DX028 (sc), vehicle: water 102 % of control | dose: 400.0 mg/kg/injection, schedule: Q01DX028 (sc), vehicle: water 100 % of control

O=c1[nH]cc(F)c(=O)[nH]1
active: [2] 155 % of control | [3] 251 % of control | dose: 12.0 mg/kg/injection, schedule: Q01DX024 (sc), vehicle: saline 214 % of control | [4] 155 % of control | dose: 24.0 mg/kg/injection, schedule: Q## X012 (sc), vehicle: saline 156 % of control | dose: 26.7 mg/kg/injection, schedule: Q01DX004 (sc), vehicle: saline 157 % of control
inactive: [1] 122 % of control | dose: 3.0 mg/kg/injection, schedule: Q01DX024 (sc), vehicle: saline 109 % of control | dose: 5.8 mg/kg/injection, schedule: Q01DX001 (sc), vehicle: saline 105 % of control | dose: 5.8 mg/kg/injection, schedule: Q01DX002 (sc), vehicle: saline 100 % of control | dose: 5.8 mg/kg/injection, schedule: Q01DX003 (sc), vehicle: saline 112 % of control | dose: 5.8 mg/kg/injection, schedule: Q01DX004 (sc), vehicle: saline 110 % of control | dose: 6.0 mg/kg/injection, schedule: Q01DX024 (sc), vehicle: saline 121 % of control | dose: 6.0 mg/kg/injection, schedule: Q## X008 (sc), vehicle: saline 104 % of control | dose: 6.0 mg/kg/injection, schedule: Q## X012 (sc), vehicle: saline 114 % of control | dose: 9.6 mg/kg/injection, schedule: Q01DX001 (sc), vehicle: saline 110 % of control | dose: 9.6 mg/kg/injection, schedule: Q01DX002 (sc), vehicle: saline 112 % of control | dose: 9.6 mg/kg/injection, schedule: Q01DX003 (sc), vehicle: saline 120 % of control | dose: 9.6 mg/kg/injection, schedule: Q01DX004 (sc), vehicle: saline 112 % of control | dose: 12.0 mg/kg/injection, schedule: Q## X008 (sc), vehicle: saline 117 % of control | dose: 12.0 mg/kg/injection, schedule: Q## X012 (sc), vehicle: saline 117 % of control | dose: 16.0 mg/kg/injection, schedule: Q01DX001 (sc), vehicle: saline 115 % of control | dose: 16.0 mg/kg/injection, schedule: Q01DX002 (sc), vehicle: saline 117 % of control | dose: 26.7 mg/kg/injection, schedule: Q01DX001 (sc), vehicle: saline 120 % of control | dose: 26.7 mg/kg/injection, schedule: Q01DX002 (sc), vehicle: saline 122 % of control | [5] 93 % of control | dose: 44.5 mg/kg/injection, schedule: Q01DX003 (sc), vehicle: saline 107 % of control | dose: 44.5 mg/kg/injection, schedule: Q01DX004 (sc), vehicle: saline 120 % of control | dose: 48.0 mg/kg/injection, schedule: Q01DX024 (sc), vehicle: saline 102 % of control | dose: 96.0 mg/kg/injection, schedule: Q## X008 (sc), vehicle: saline 95 % of control | dose: 96.0 mg/kg/injection, schedule: Q## X012 (sc), vehicle: saline 90 % of control

O=c1[nH]c(=O)n(C2CC(O)C(CO)O2)cc1F (stereo not given)
inactive: [7] 102 % of control and 109 % of control | [6] 97 % of control | [8] 91 % of control | [9] 86 % of control
